Literature values, collected in US20020119970A1, “Method for treating glaucoma IIB” (priority 2000, published 2002).

Key:
Rhesus monkeys = conditions: accommodative responses to i.m. pilocarpine; result referred to co-filed application "Methods for Treating Glaucoma I"
Aged Rhesus monkeys = conditions: drug treated vs. control eye; baseline and pilocarpine-stimulated conditions; result referred to co-filed application "Methods for Treating Glaucoma I"

Cc1sc[n+](CC(=O)c2ccccc2)c1C.[Cl-] [4,5-dimethyl-3-(2-oxoethyl-phenethyl)thiazolium chloride]
Improvement in accommodation (Rhesus monkeys): Improvement in accommodation has been illustrated | improvement in ophthalmologic function (fluid outflow facility) (Aged Rhesus monkeys): improvement has been illustrated
